Assay [1] deals with mice with T9 contusion type of injury. In words: bladder function score during manual bladder expression after T9 contusion SCI. It counts as in vivo. The conditions noted are these: vs Vehicle. Here is the method:
(§1) A moderate-severe contusion-type of injury was performed on adult C57BL/6 female mice (10-12 weeks) with an Infinite Horizon Impactor (PSI)^30. All surgeries were performed under aseptic conditions. Briefly, under deep anesthesia with Ketamine and Xylazine (120 mg/kg and 16 mg/kg respectively, i.p.) mice received a dorsal laminectomy at the level of 9th thoracic vertebra (T9). After securing the lateral processes of the 8th thoracic vertebra (T8) and 10th thoracic vertebra (T10) with a stainless-steel impactor tip, a controlled force-defined impact at 75 kdyne was delivered to the exposed spinal cord^28,30. Then, muscle and skin were closed with 4.0 polyglycolic acid (PGA) absorbable sutures (Safil, G1048213). In this study, mice were excluded when the actual displacement value was outside the interval 500-700 μm or if the actual force after impact was >2SD 75 Kdyne. Immediately after injury, mice were injected subcutaneously with 0.5 ml of sterile saline and then daily for 5 days. […] Weight was monitored daily until 15 days-post-injury (dpi) and then weekly for the duration of the study and a high caloric pellet (Supreme Mini-Treats™ S05478 and S05472) was provided as a dietary supplement since a 10% weight loss was typically observed in this SCI model upon injury. […]
Additionally, we also evaluated the bladder dysfunction status, which is a common effect seen after a SCI^3,37. […]

A further assay has as its target T1, 5-HTIF (Homo sapiens, UniProt P30939).
T1 sequence (P30939 1-366): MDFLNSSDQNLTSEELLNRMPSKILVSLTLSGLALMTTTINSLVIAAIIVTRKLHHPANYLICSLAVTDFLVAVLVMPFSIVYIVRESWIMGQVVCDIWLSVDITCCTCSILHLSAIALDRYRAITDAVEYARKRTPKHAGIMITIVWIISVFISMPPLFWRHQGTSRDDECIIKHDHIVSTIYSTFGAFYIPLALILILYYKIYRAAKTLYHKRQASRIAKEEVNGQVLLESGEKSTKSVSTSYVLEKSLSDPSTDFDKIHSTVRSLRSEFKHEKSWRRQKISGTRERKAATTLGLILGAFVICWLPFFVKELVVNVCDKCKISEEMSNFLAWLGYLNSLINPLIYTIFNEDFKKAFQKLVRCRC
The conditions noted are these: serotonin receptor agonist; cited from earlier work.

Assay [2] deals with mice with T9 contusion type of injury. In words: acetone evaporation assay (cold allodynia) after T9 contusion SCI. The assay is classed as in vivo. The conditions noted are these: 14 dpi and 42 dpi, vs Vehicle. As to the method: as §1, with “Kdyne.” for “Kdyne. Immediately after injury, mice were injected subcutaneously with 0.5 ml of sterile saline and then daily for 5 days.”
An acetone evaporation assay was used to measure the sensitivity to a cold stimulus upon injury^33. […] In each trial, the time spent flicking or licking the hind paw for 60 seconds was measured using a timer and recorded for analysis^34. […]

For assay [3] the test system is unchanged. Nature of the assay: Basso Mouse Scale (BMS) open-field locomotion after T9 contusion spinal cord injury. The assay is classed as in vivo. Here is the method: Adult female C57BL/6J mice (8-10 weeks-old; Charles River) were used in this study. The mice were housed three to four per cage and were maintained on a 12-hour light/dark cycle with food and water ad libitum for the duration of the study.
A moderate-severe contusion-type of injury was performed on adult C57BL/6 female mice (10-12 weeks) with an Infinite Horizon Impactor (PSI)^30. All surgeries were performed under aseptic conditions. Briefly, under deep anesthesia with Ketamine and Xylazine (120 mg/kg and 16 mg/kg respectively, i.p.) mice received a dorsal laminectomy at the level of 9th thoracic vertebra (T9). After securing the lateral processes of the 8th thoracic vertebra (T8) and 10th thoracic vertebra (T10) with a stainless-steel impactor tip, a controlled force-defined impact at 75 kdyne was delivered to the exposed spinal cord^28,30. Then, muscle and skin were closed with 4.0 polyglycolic acid (PGA) absorbable sutures (Safil, G1048213). In this study, mice were excluded when the actual displacement value was outside the interval 500-700 μm or if the actual force after impact was >2SD 75 Kdyne. Immediately after injury, mice were injected subcutaneously with 0.5 ml of sterile saline and then daily for 5 days. During this experiment, mice underwent gentle bladder expression twice daily until they were voiding on their own. Weight was monitored daily until 15 days-post-injury (dpi) and then weekly for the duration of the study and a high caloric pellet (Supreme Mini-Treats™ S05478 and S05472) was provided as a dietary supplement since a 10% weight loss was typically observed in this SCI model upon injury.
The Eletriptan Hbr (Sigma-Aldrich, PZ0011) dosage used were equivalent to the human market dose^31 and all treatment dosages were aliquoted using a coded system to maintain double-blinded measures. This code was only unveiled at the end of all behavioural tests. Mice were randomly distributed to each experimental group (SCI+Vehicle and SCI+Eletriptan Hbr). Vehicle and Eletriptan Hbr were administered via intraperitoneal injection (i.p.), beginning 1 hour after injury (hpi) and then daily until 15 dpi.
Open-field locomotion was assessed with the BMS rating system^30,32. The open-field used was a round platform with 85 cm in diameter and 30.5 cm high, located in a quiet testing room with normal lighting. The mice were habituated to the testing platform for 5 minutes daily for 2 weeks before surgery. The BMS testing (BMS scoring and subscoring) was performed as previously described^28,30. Briefly, mice were tested before surgery, to obtain baseline pre-operation locomotion values, where it is expected a maximum S score value. To determine the functional recovery after treatment the BMS score of each mouse was evaluated at 1, 3, 7, 14 dpi and then weekly until the end of the experiments. The evaluation of BMS score and subscore was always performed by two raters who were blind to the treatment groups and scored hindlimb locomotion for 4 minutes per mouse. If the scores differed between raters, the final score taken was the average of both scores.
To validate the therapeutic effect of Eletriptan Hbr for SCI indication in a non-regenerative model, it was decided to test its efficacy in a SCI rodent model. Therefore, a contusion type of injury was performed in C57BL/6 female mice, using an Infinite Horizon (IH) Impactor and the Basso Mouse Scale (BMS) test^32 was used to evaluate the locomotor performance of the animals after injury. First, mice were habituated to the open-field platform and after 15 days they were injured with a moderate-severe T9 contusion (75 kdyne) (FIG. 2A). Immediately after injury and upon biomechanical exclusion criteria, mice were randomly distributed to each experimental group (SCI+Vehicle and SCI+Eletriptan Hbr). Treatment dosages (Vehicle or Eletriptan Hbr) were administered via intraperitoneal (i.p.) injection, beginning 1 hour-post-injury (1hpi), and then daily until 15 dpi (FIG. 2A). […]

Where a name gives a salt, the structure may show the parent alone.

For the molecule `CN1CCC[C@@H]1Cc1c[nH]c2ccc(CCS(=O)(=O)c3ccccc3)cc12` [Eletriptan Hbr, Eletriptan Hydrobromide], the “volumes of retained urine (bladder score 0 to 3)” value in assay [1] (1 dpi) was “statistically significant smaller volumes of retained urine”. The “volumes of retained urine (bladder score 0 to 3)” value in assay [1] (after 1 dpi until the end of the study) is recorded as “no differences between experimental groups”. Moreover, the affinity entry on 5-HTIF was “high affinity”. For the same molecule, in assay [2], the “cumulative reaction time of nocifensive responses” value is “consistently but not a significantly decrease” and the “number of episodes of the cold hypersensitivity” value is given as “lower number of episodes”. Besides, in assay [3] (42 dpi), the “animals that acquired a mild trunk stability” value came out at 46%, the “mice with frequent plantar stepping with parallel placement of both hindlimb paws at initial contact” value was 85% and the “mice with parallel placement of at least one of the hindlimb paws at lift off” value turned out to be 23%. The “events that block the walking movement such as spasms and but downs” value in assay [3] (42 dpi, observed during BMS testing, vs Vehicle) is listed as “less events”. Besides, in assay [3] (42 dpi, of thirteen treated mice), the “mice that achieved a BMS score of 5 (frequent or consistent plantar stepping)” value is reported as “twelve”. For the same molecule, the “mice that achieved a BMS score of 6 (frequent plantar stepping with some fore-hindlimb coordination)” value in assay [3] (42 dpi, thirteen treated mice) is “one out of thirteen”. The “average BMS subscores compared to Vehicle-treated mice” value in assay [3] (from 7 to 42 dpi) is “consistently higher”. Moreover, the “average BMS subscores compared to Vehicle-treated mice” value in assay [3] (from 35 dpi to 42 dpi) was “significantly higher”. Further, in assay [3] (i.p. from 1 hpi, daily until 15 dpi), the “time at which average BMS scores reached a plateau” value is 28-35 dpi. Moreover, the “BMS scores over time compared to Vehicle-treated mice” value in assay [3] (i.p. from 1 hpi, daily until 15 dpi, 1 to 42 dpi) is listed as “consistently but not significantly higher”.

These data come from patent publication US12605362B2, “Eletriptan hydrobromide for treatment of spinal cord injury and improvement of locomotor function” (TECHNOPHAGE, INVESTIGAÇÃO E DESENVOLVIMENTO EM …, priority 2020, dated 2026).
